Experimental data: ChEMBL document CHEMBL1201862, “PubChem BioAssay data set” (2004)
Active and inactive are the calls of the source.

Tests used:
Vero = Vero cell cytotoxicity, cytotoxicity control for flavivirus capping enzyme inhibitors (AID 588742); assay type: functional; details: Chlorocebus sabaeus
[1] = molecular target: T1, Corticotropin-releasing factor receptor 2/Corticotropin-releasing factor-binding protein (Homo sapiens, UniProt P24387+Q13324); test: Dose Response confirmation of uHTS hits for small molecule antagonists of the CRF-binding protein and CRF-R2 receptor complex.; assay type: functional; details: read-out: IC50_Mean
T1 sequence (Q13324 whole entry): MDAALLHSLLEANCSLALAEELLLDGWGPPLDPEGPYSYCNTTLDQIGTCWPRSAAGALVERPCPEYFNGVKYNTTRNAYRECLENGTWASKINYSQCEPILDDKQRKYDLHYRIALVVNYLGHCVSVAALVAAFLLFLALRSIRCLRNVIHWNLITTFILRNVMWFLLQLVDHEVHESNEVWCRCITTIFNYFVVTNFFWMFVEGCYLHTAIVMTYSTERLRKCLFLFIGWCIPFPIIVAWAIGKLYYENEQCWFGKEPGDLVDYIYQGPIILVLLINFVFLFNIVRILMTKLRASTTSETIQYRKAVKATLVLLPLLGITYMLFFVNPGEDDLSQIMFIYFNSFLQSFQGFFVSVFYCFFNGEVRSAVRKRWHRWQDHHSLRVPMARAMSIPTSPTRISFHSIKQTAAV
T1 sequence (P24387 whole entry): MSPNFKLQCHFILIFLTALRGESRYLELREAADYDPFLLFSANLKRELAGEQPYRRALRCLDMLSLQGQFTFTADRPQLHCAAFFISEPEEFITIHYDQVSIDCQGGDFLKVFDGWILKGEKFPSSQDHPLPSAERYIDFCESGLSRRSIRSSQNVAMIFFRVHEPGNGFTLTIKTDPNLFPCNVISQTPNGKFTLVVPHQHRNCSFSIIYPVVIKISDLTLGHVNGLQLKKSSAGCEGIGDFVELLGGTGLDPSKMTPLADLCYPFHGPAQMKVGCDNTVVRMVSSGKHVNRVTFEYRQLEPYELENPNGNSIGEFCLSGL

[2] = molecular target: T1, Corticotropin-releasing factor receptor 2/Corticotropin-releasing factor-binding protein; test: activators of CRF receptor 2 with binding protein – uHTS hits, confirmation (AID 602473); assay type: functional; details: read-out: EC50_Mean
Protein RecA = molecular target: T2, Protein RecA (Mycobacterium tuberculosis, UniProt P9WHJ3); test: Fluorescence Cell-Free Homogeneous Dose Retest to Identify Inhibitors of RecA-Intein Splicing Activity. [Related pubchem assays (depositor defined):AID2097, AID2223, AID489010, AID492950]; assay type: functional
T2 sequence (P9WHJ3 whole entry): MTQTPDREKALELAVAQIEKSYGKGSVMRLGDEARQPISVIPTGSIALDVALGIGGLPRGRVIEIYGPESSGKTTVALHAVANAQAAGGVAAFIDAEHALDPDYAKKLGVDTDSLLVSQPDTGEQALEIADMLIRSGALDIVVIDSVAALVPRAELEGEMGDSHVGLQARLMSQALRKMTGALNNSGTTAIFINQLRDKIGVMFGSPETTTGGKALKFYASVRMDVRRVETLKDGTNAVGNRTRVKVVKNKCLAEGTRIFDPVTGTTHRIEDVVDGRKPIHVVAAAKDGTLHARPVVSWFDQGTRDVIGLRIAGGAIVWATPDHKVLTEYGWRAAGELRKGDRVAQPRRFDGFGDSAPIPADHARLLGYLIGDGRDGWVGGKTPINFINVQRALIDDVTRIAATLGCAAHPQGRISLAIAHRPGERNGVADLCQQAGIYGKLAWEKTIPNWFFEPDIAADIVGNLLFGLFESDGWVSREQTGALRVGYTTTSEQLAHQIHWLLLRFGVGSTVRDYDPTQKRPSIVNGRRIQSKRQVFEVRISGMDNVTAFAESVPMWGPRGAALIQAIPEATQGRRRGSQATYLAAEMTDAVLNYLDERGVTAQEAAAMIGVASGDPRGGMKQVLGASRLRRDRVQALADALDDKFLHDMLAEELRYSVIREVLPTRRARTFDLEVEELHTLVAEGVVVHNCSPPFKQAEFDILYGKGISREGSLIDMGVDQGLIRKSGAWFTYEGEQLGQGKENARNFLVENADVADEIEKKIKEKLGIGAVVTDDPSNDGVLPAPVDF

[3] = molecular target: T3, Carboxy-terminal domain RNA polymerase II polypeptide A small phosphatase 1 (Homo sapiens, UniProt Q9GZU7); test: inhibitors of CTDSP1, concentration-response testing, biochemical assay, absorbance-based, actives from ultra-high-throughput screening (AID 540297); assay type: functional
T3 sequence (Q9GZU7 whole entry): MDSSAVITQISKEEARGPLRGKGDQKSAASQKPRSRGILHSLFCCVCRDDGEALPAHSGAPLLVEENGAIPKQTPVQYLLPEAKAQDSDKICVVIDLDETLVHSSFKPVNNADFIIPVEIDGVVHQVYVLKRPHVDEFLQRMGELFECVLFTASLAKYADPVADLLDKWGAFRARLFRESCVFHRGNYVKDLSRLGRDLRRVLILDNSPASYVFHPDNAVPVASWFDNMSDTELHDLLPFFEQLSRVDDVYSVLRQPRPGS

[4] = molecular target: T4, Replicative DNA helicase DnaB (Mycobacterium tuberculosis, UniProt P9WMR3); test: DnaB intein splicing inhibitors, dose response, biochemical, cell-free fluorescence (AID 449749); assay type: functional
T4 sequence (P9WMR3 whole entry): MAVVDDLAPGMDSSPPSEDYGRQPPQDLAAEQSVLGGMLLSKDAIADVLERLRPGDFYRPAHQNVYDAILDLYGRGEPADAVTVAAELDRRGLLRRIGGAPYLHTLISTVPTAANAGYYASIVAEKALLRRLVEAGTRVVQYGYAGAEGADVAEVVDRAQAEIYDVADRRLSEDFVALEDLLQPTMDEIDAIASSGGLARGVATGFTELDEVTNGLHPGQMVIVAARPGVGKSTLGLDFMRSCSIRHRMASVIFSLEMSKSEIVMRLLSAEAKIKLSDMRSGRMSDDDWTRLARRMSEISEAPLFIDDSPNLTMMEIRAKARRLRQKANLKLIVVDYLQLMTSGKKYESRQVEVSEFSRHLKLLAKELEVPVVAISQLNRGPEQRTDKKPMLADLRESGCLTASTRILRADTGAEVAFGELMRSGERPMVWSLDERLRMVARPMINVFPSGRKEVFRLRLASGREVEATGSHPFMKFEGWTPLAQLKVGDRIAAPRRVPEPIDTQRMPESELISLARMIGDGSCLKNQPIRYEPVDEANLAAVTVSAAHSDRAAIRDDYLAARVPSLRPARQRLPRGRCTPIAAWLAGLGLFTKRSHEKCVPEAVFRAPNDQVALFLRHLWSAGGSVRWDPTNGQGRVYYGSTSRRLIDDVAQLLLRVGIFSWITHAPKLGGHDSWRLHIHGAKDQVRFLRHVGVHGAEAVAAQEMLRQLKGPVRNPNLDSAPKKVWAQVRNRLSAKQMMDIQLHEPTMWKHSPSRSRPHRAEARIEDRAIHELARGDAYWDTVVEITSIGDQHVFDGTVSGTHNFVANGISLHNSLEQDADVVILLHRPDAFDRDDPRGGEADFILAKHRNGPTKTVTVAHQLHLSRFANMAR

Genome polyprotein = Genome polyprotein (dengue virus type 2, UniProt P29990); test: Dengue-2 NS5 methyltransferase inhibitors, primary screen, biochemical, confirmation dose response (AID 588689); assay type: functional
Genome polyprotein, sequence (P29990 2492-3391 limits assumed): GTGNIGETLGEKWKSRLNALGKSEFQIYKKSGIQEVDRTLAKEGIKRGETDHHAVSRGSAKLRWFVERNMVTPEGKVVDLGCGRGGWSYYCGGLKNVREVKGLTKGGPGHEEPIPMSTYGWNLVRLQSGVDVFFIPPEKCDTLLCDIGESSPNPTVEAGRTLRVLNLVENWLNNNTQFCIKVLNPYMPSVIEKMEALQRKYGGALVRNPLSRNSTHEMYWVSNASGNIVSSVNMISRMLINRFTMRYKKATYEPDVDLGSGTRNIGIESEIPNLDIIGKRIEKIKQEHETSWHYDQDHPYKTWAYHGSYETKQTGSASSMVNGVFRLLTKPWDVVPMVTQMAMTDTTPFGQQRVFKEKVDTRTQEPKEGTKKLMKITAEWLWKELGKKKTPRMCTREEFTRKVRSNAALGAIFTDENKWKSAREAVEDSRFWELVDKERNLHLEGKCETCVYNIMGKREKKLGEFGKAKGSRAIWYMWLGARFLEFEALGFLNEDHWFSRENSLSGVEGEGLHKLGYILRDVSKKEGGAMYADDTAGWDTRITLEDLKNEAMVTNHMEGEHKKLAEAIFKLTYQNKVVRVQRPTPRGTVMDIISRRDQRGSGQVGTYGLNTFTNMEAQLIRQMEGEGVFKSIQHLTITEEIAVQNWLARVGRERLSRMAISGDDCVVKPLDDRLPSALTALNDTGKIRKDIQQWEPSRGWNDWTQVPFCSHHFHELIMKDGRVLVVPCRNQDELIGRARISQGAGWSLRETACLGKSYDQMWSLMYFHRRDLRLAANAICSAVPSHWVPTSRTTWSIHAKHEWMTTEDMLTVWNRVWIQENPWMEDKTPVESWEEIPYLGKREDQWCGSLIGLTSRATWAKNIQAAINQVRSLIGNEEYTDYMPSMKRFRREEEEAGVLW

[5] = growth suppression of PTEN-null colon cells, dose response, cell-based, HCT116 PTEN knockout (AID 1047); assay type: functional;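 further: HCT116 colon tumor cells with PTEN knocked out; cells exposed to compound for 60 hours before readout; potency for loss of cell viability measured by luminescence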
[6] = molecular target: T5, Ubiquitin-conjugating enzyme E2 N (Homo sapiens, UniProt P61088); assay type: functional;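 further: Dose-response confirmation in a TR-FRET assay detecting UBC13-driven polyubiquitin chain formation, inhibition measured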
T5 sequence (P61088 whole entry): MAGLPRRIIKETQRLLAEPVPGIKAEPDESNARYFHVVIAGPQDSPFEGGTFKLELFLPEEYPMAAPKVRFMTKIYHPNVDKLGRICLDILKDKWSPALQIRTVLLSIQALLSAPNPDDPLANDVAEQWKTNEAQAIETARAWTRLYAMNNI

[7] = growth suppression of beta-catenin-knockout colon cells, dose response, cell-based, HCT116, human colon tumor (AID 1045); assay type: functional;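 further: HCT116 colon tumor cells with beta catenin knocked out; cells exposed to compound for 60 hours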
[8] = Luminescence Cell-Based Dose Confirmation HTS to Identify Activators of 5'UTR Stem-Loop Driven Alpha-Synuclein mRNA Translation in H4 Neuroglioblastoma Cells. [Related pubchem assays: 1829 (Project Summary), 1814 (Primary HTS)]; assay type: functional
H4 = test: Luminescence Cell-Based Dose Response HTS to Identify Activators of 5'UTR Stem-Loop Driven Prion Protein mRNA Translation in H4 Neuroglioblastoma Cells. [Related pubchem assays: 1829 (Project Summary), 1814 (Primary HTS)]; assay type: functional; details: Homo sapiens
[9] = Luminescence Cell-Based Dose Response HTS to Identify Activators of Luciferase Translation or Activity in H4 […] Cells. [Related pubchem assays: 1829 (Project Summary), 1814 (Primary HTS)]; assay type: functional
[10] = molecular target: Glyceraldehyde-3-phosphate dehydrogenase (Homo sapiens, UniProt P04406)
Glyceraldehyde-3-phosphate dehydrogenase, sequence (P04406 whole entry): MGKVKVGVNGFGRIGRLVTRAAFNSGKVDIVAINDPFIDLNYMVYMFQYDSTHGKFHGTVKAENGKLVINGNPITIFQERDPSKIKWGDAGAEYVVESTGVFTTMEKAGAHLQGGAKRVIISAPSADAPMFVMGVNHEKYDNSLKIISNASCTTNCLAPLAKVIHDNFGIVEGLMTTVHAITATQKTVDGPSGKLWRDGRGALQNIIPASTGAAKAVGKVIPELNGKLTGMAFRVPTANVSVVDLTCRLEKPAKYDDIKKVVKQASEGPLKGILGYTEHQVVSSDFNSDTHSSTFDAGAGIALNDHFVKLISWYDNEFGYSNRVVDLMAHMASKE

[11] = molecular target: T6, Zinc finger protein mex-5 (Caenorhabditis elegans, UniProt Q9XUB2); test: MEX-5/TCR-2 RNA interaction inhibitors, dose response, biochemical, C. elegans, fluorescence polarization (AID 1960)
T6 sequence (Q9XUB2 whole entry): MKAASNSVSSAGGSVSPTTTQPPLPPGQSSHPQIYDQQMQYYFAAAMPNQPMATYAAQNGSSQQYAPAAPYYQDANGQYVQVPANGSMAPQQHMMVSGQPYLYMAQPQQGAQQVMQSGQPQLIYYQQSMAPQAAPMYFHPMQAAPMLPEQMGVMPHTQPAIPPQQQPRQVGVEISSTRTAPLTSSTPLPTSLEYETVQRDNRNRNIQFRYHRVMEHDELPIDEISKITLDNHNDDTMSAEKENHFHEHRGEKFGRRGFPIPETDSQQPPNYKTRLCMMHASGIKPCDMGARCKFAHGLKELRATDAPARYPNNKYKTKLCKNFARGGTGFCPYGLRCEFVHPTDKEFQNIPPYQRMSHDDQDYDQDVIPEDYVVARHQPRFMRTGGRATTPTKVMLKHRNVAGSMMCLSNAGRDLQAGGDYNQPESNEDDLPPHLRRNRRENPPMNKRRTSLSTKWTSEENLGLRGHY

[12] = molecular target: T7, RNA-binding protein pos-1 (Caenorhabditis elegans, UniProt G5EF15); test: inhibitors of POS-1/mex-3 RNA binding, dose response, biochemical, fluorescence polarization (AID 1964);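 further: purified POS-1 fused to maltose binding protein made in E. coli; potency of compounds blocking POS-1 binding to fluorescent RNA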
T7 sequence (G5EF15 whole entry): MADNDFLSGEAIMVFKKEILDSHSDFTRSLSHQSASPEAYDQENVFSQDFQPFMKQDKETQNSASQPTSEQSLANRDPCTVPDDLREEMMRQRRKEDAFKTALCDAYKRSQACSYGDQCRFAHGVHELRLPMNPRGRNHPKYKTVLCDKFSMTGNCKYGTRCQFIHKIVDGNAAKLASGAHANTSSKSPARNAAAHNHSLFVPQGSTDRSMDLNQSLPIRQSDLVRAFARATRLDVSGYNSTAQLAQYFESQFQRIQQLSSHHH

[13] = THP-1 cell cytotoxicity, dose response, cytotoxicity control for Vif-APOBEC3G degradation inhibitor project, THP-1 cells (AID 1117359); assay type: functional; details: Human immunodeficiency virus 1, THP-1

CC1=NN(C(N)=S)C(=O)C1N=Nc1cccc(Cl)c1C (stereo unspecified)
CC50 (Vero): > 40 µM (active)

COC(=O)c1cc(OC)c(OC)cc1NC(=O)C(C)Sc1ccc(C)cc1 (stereo unspecified)
IC50 [1]: > 47.1 µM (inactive)
EC50 [2]: > 53 µM (inactive)

CCOc1ccc(/C=C2\SC(=S)N(CCC(=O)Nc3ccccc3C(=O)O)C2=O)cc1
EC50 (Protein RecA): 15.1 µM (active)
IC50 [3]: 4.86 µM (active)
AC50 [4]: 6.1 µM (active)
IC50 (Genome polyprotein): 29.3 µM (active)

CC1(C)CC2=NC3=C(C(=O)c4ccccc43)C(c3ccc(Cl)cc3)C2=C(O)C1 (stereo unspecified)
EC50 [5]: 13.1 µM (active)
IC50 [6]: > 20 µM (inactive)
EC50 [7]: 13.8 µM (active)

COc1cccc(NC(=O)COC(=O)c2c(F)cccc2Cl)c1
EC50 [8]: 66.8 µM (active)
EC50 (H4): 20.2 µM (active)
EC50 [9]: 16.1 µM (active)

NS(=O)(=O)c1ccc(NC(=O)COc2ccccc2)cc1
IC50 [10]: > 100 µM (not active)

CC1CCC(NC(=O)C2CCN(c3c4c(nc5ncnn35)CCC4)CC2)CC1 (stereo unspecified)
EC50 [8]: 48.6 µM (active)
EC50 (H4): 22.3 µM (active)
EC50 [9]: 64.8 µM (active)

CC(=O)c1ccc(NC(=O)CCc2nnc3ccc(N4CCC5(CC4)OCCO5)nn23)cc1
IC50 [1]: > 47.1 µM (inactive)
EC50 [2]: > 53 µM (inactive)

COc1ccc(NC(=O)C(Sc2ccccc2)c2ccccc2)c(OC)c1 (stereo unspecified)
IC50 [1]: > 47.1 µM (inactive)
EC50 [2]: > 53 µM (inactive)

c1ccc(CN2CCC(NC3=NN=C(c4ccc5c(c4)OCCO5)CS3)CC2)cc1
EC50 [8]: 12.5 µM (active)
EC50 (H4): 48.5 µM (active)
EC50 [9]: > 120 µM (not active)

CCCC(C(=O)NC(C)(C)C)N(Cc1ccccc1Cl)C(=O)c1snc(C(N)=O)c1N (stereo unspecified)
IC50 [6]: > 20 µM (inactive)

CCC(C)/C=C(C)/C=C/C1=CC2=C(Cl)C(=O)C(C)(OC(C)=O)C(=O)C2=CO1 (stereo unspecified)
EC50 [8]: > 120 µM (not active)
EC50 (H4): > 120 µM (not active)
EC50 [11]: > 300 µM (not active)
EC50 [12]: > 300 µM (not active)
EC50 [9]: > 120 µM (not active)
IC50 (Genome polyprotein): 38 µM (active)
CC50 (Vero): > 40 µM (active)

COc1cc(C(=O)Nc2cccc(S(=O)(=O)N3CCCC3)c2)cc(OC)c1C
IC50 [6]: > 20 µM (inactive)

COc1ccccc1NC(=O)CSc1nnc(CNC(=O)c2ccco2)o1
IC50 [1]: > 47.1 µM (inactive)
EC50 [2]: > 53 µM (inactive)

O=C(Nc1cccc(S(=O)(=O)N2CCCCC2)c1)c1ccc(S(=O)(=O)C(F)F)cc1
IC50 [1]: > 47.1 µM (inactive)
EC50 [2]: > 53 µM (inactive)

Cc1ccc(S(=O)(=O)N2[C@@H](c3ccc(Br)cc3)C(C(=O)O)=C[C@H]2CC2CCCC2)cc1
IC50 (Genome polyprotein): 37 µM (active)
CC50 (Vero): > 40 µM (active)

Cc1c(Cl)cccc1N1C(=O)c2ccccc2C1=O
IC50 [1]: > 47.1 µM (inactive)
EC50 [2]: > 53 µM (inactive)

CC1=C(SCc2ccccc2)C(=O)c2ccccc2C1=O
CC50 [13]: 34.6 µM (active)
IC50 (Genome polyprotein): 76.8 µM (active)
CC50 (Vero): > 40 µM (active)

O=C1C(=Cc2ccncc2)CCCc2ccccc21
IC50 [1]: > 47.1 µM (inactive)
EC50 [2]: > 53 µM (inactive)
